Assays:
mTORC1 (mTOR/GbL/Raptor) = mTORC1 (mTOR/GbL/Raptor) (Homo sapiens, UniProt P42345); assay: mTOR/GbL/Raptor (mTORC1) ELISA Assay; format: biochemical; conditions: 0.2 nM mTORC1, 10 μM ATP, 50 nM NHis-tagged 4E-BP1; phosphorylation of 4E-BP1; read-out: IC50
Method: mTOR/GbL/Raptor (mTORC1) ELISA Assay
The measurement of mTORC1 enzyme activity was performed in an ELISA assay format following the phosphorylation of 4E-BP1 protein. All experiments were performed in the 384-well format. Generally, 0.5 μL DMSO containing varying concentrations of the test compound was mixed with 15 μL enzyme solution. Kinase reactions were initiated with the addition of 15 μL of substrates-containing solution. The assay conditions were as follows; 0.2 nM mTORC1, 10 μM ATP and 50 nM NHis-tagged 4E-BP1 in 20 mM Hepes, pH 7.2, 1 mM DTT, 50 mM NaCl, 10 mM MnCl2, 0.02 mg/mL BSA, 0.01% CHAPS, 50 mM β-glycerophosphate. Following an incubation of 120 minutes at ambient temperature, 20 μL of the reaction volume was transferred to a Ni-Chelate-coated 384-well plate. The binding step of the 4E-BP1 protein proceeded for 60 minutes, followed by washing 4 times each with 50 μL of Tris-buffered saline solution (TBS). Anti-phospho-4E-BP1 rabbit-IgG (20 μL, 1:5000) in 5% BSA-TBST (0.2% Tween-20 in TBS) was added and further incubated for 60 minutes. Incubation with a secondary HRP-tagged anti-IgG was similarly performed after washing off the primary antibody (4 washes of 50 μL). Following the final wash step with TBST, 20 μL of SuperSignal ELISA Femto (Pierce Biotechnology) was added and the luminescence measured using an EnVision plate reader.

PI3Kα = PI3Kα (Homo sapiens, UniProt P42336); assay: PI3K Biochemical Assays (ATP consumption, luciferase-luciferin chemiluminescence); conditions: PI3Kα 1.5 nM, ATP 1 μM, PIP2 10 μM; percent of ATP consumed
Method: PI3Kα activity is measured as the percent of ATP consumed following the kinase reaction using luciferase-luciferin-coupled chemiluminescence. Reactions were conducted in 384-well white, medium binding microtiter plates (Greiner). Kinase reactions were initiated by combining test compounds, ATP, substrate (PIP2), and kinase in a 20 μL volume in a buffer solution. The standard PI3Kalpha assay buffer is composed 50 mM Tris, pH 7.5, 1 mM EGTA, 10 mM MgCl2, 1 mM DTT and 0.03% CHAPS. The standard assay concentrations for enzyme, ATP, and substrate are 1.5 nM, 1 μM, and 10 μM, respectively. The reaction mixture was incubated at ambient temperature for approximately 2 h. Following the kinase reaction, a 10 μL aliquot of luciferase-luciferin mix (Promega Kinase-Glo) was added and the chemiluminescence signal measured using a Victor2 plate reader (Perkin Elmer). Total ATP consumption was limited to 40-60% and IC50 values of control compounds correlate well with literature references. Substituting PI3Kα with PI3KIβ, […], or […], the inhibitory activity of the compounds for the other isoforms of I3K were measured.

Sequence of PI3Kα (P42336 whole entry): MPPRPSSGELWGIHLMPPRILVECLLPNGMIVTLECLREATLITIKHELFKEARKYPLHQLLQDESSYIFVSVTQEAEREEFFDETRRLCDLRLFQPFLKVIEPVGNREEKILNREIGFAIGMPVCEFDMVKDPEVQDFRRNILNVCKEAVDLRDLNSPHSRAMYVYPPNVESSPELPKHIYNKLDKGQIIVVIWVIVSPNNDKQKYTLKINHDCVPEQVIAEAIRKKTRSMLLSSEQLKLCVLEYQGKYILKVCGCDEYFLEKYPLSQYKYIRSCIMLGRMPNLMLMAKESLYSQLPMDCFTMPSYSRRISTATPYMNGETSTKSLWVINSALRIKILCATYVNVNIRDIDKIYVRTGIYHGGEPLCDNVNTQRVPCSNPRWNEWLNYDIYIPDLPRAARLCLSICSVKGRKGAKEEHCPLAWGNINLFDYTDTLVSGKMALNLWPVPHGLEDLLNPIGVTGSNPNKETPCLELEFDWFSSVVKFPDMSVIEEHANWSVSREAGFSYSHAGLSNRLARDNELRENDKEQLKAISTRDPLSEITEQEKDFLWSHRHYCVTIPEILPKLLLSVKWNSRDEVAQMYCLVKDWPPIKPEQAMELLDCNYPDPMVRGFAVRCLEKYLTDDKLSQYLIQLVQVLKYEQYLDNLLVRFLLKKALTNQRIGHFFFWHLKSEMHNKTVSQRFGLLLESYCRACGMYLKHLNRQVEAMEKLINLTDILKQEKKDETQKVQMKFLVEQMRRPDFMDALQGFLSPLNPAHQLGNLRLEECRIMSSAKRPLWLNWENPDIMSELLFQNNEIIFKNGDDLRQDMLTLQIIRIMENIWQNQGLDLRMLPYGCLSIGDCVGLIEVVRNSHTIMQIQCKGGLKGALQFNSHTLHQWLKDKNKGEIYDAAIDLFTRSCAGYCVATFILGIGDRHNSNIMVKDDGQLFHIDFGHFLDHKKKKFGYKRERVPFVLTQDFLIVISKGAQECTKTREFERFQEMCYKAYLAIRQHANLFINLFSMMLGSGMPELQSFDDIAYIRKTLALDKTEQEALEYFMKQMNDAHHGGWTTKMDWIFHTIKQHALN
Sequence of PI3Kα (P27986 whole entry partner): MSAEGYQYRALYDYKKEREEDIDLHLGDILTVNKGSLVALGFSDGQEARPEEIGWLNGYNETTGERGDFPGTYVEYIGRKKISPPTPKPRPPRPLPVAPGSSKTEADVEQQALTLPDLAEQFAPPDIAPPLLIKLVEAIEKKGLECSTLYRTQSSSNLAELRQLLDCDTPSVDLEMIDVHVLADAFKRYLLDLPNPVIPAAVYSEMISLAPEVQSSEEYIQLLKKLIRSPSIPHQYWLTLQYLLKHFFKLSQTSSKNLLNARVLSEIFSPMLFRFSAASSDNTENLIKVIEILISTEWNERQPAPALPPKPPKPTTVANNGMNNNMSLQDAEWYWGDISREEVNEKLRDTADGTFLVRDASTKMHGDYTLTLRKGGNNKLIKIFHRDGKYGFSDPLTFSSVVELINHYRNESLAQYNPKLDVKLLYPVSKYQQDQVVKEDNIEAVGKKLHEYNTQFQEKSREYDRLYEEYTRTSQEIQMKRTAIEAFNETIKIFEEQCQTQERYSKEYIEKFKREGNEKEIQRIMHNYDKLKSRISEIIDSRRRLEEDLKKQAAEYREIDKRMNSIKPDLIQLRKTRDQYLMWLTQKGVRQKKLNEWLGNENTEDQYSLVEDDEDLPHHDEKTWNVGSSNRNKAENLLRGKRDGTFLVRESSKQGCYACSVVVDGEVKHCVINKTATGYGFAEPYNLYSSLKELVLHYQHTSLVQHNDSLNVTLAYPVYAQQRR

| IC50 (mTORC1 (mTOR/GbL/Raptor)) [nM] | IC50 (PI3Kα) [nM] | SMILES |
| --- | --- | --- |
| ≤ 50 | ≤ 75 | COC(=O)Nc1nc2ncc(-c3ccc4c(c3)CN(C(=O)N3CCC(CF)CC3)CCO4)cc2[nH]1 [Compound 36, methyl [6-(4-{[4-(fluoromethyl)piperidin-1-yl]carbonyl}-2,3,4,5-tetrahydro-1,4-benzoxazepin-7-yl)-1H-imidazo[4,5-b]pyridin-2-yl]carbamate] |
| 50 to 250 | ≤ 75 | COC(=O)Nc1nc2ncc(-c3ccc4c(c3)CN(C(=O)N3CCC(=O)CC3c3ccc(F)c(F)c3)CCO4)cc2[nH]1 (stereo not shown) [Compound 39, methyl [6-(4-{[2-(3,4-difluorophenyl)-4-oxopiperidin-1-yl]carbonyl}-2,3,4,5-tetrahydro-1,4-benzoxazepin-7-yl)-1H-imidazo[4,5-b]pyridin-2-yl]carbamate] |
| 50 to 250 | 200 to 500 | Cc1nc2cc(-c3ccc4c(c3)CN(C(=O)N3CCC(=O)CC3c3cccc(F)c3)CCO4)cnc2[nH]1 (stereo not shown) [Compound 51, 2-(3-fluorophenyl)-1-{[7-(2-methyl-3H-imidazo[4,5-b]pyridin-6-yl)-2,3-dihydro-1,4-benzoxazepin-4(5H)-yl]carbonyl}piperidin-4-one] |
| 250 to 700 | 500 to 1000 | Cc1nc2ccc(-c3ccc4c(c3)CN(C(=O)N3CCCCCC3)CCO4)cc2[nH]1 [Compound 89, 4-(azepan-1-ylcarbonyl)-7-(2-methyl-1H-benzimidazol-6-yl)-2,3,4,5-tetrahydro-1,4-benzoxazepine] |
| ≤ 50 | 200 to 500 | CCNc1nc2ccc(-c3ccc4c(c3)CN(C(=O)N3CCC(C(C)(F)F)CC3)CCO4)cc2[nH]1 [Compound 33, 6-(4-{[4-(1,1-difluoroethyl)piperidin-1-yl]carbonyl}-2,3,4,5-tetrahydro-1,4-benzoxazepin-7-yl)-N-ethyl-1H-benzimidazol-2-amine] |
| 50 to 250 | 200 to 500 | CCC1CCC(C)N(C(=O)N2CCOc3ccc(-c4ccc5nc(C)[nH]c5c4)cc3C2)C1 (stereo not shown) [Compound 76, 4-[(5-ethyl-2-methylpiperidin-1-yl)carbonyl]-7-(2-methyl-1H-benzimidazol-6-yl)-2,3,4,5-tetrahydro-1,4-benzoxazepine] |
| 50 to 250 | ≤ 75 | COC(=O)Nc1nc2ncc(-c3ccc4c(c3)CN(C(=O)N3CCC(=O)CC3c3ccc(F)cc3)CCO4)cc2[nH]1 (stereo not shown) [Compound 37, methyl [6-(4-{[2-(4-fluorophenyl)-4-oxopiperidin-1-yl]carbonyl}-2,3,4,5-tetrahydro-1,4-benzoxazepin-7-yl)-1H-imidazo[4,5-b]pyridin-2-yl]carbamate] |
| 50 to 250 | 500 to 1000 | N#CC1CCN(C(=O)N2CCOc3ccc(-c4ccc(-c5ncc[nH]5)nc4)cc3C2)CC1 [Compound 63, 1-({7-[6-(1H-imidazol-2-yl)pyridin-3-yl]-2,3-dihydro-1,4-benzoxazepin-4(5H)-yl}carbonyl)piperidine-4-carbonitrile] |
| 250 to 700 | 500 to 1000 | Cc1nc2ccc(-c3ccc4c(c3)CN(C(=O)N3CC5CCC3C5)CCO4)cc2[nH]1 (stereo not shown) [Compound 107, 4-(2-azabicyclo[2.2.1]hept-2-ylcarbonyl)-7-(2-methyl-1H-benzimidazol-6-yl)-2,3,4,5-tetrahydro-1,4-benzoxazepine] |
| ≤ 50 | ≤ 75 | Cc1nc2ccc(-c3ccc4c(c3)CN(C(=O)N3CCCCC3c3cccc(F)c3)CCO4)cc2[nH]1 (stereo not shown) [Compound 81, 4-{[2-(3-fluorophenyl)piperidin-1-yl]carbonyl}-7-(2-methyl-1H-benzimidazol-6-yl)-2,3,4,5-tetrahydro-1,4-benzoxazepine] |
| 250 to 700 | 1000 to 3000 | Cc1nc2ccc(-c3ccc4c(c3)CN(C(=O)N3CC[C@@H]5CCCC[C@H]5C3)CCO4)cc2[nH]1 (racemic) [Compound 80, (±)-7-(2-methyl-1H-benzimidazol-6-yl)-4-[(4aS,8aR)-octahydroisoquinolin-2(1H)-ylcarbonyl]-2,3,4,5-tetrahydro-1,4-benzoxazepine] |
| 250 to 700 | 1000 to 3000 | Cc1cccc(CN(C)C(=O)N2CCOc3ccc(-c4ccc5nc(C)[nH]c5c4)cc3C2)c1 [Compound 153, N-methyl-7-(2-methyl-1H-benzimidazol-6-yl)-N-[(3-methylphenyl)methyl]-2,3-dihydro-1,4-benzoxazepine-4(5H)-carboxamide] |
| 50 to 250 | 200 to 500 | CCN(Cc1ccccc1)C(=O)N1CCOc2ccc(-c3ccc4nc(C)[nH]c4c3)cc2C1 [Compound 177, N-ethyl-7-(2-methyl-1H-benzimidazol-6-yl)-N-(phenylmethyl)-2,3-dihydro-1,4-benzoxazepine-4(5H)-carboxamide] |

Second part, the compound before the results:

| SMILES | IC50 (mTORC1 (mTOR/GbL/Raptor)) [nM] | IC50 (PI3Kα) [nM] |
| --- | --- | --- |
| Cc1nc2ccc(-c3ccc4c(c3)CN(C(=O)N(C)[C@H](C)c3ccccc3)CCO4)cc2[nH]1 [Compound 109, N-methyl-7-(2-methyl-1H-benzimidazol-6-yl)-N-[(1R)-1-phenylethyl]-2,3-dihydro-1,4-benzoxazepine-4(5H)-carboxamide] | ≤ 50 | 75 to 200 |
| Cc1nc2ccc(-c3ccc4c(c3)CN(C(=O)N3CCCC(Cc5ccccc5)C3)CCO4)cc2[nH]1 (stereo not shown) [Compound 106, 7-(2-methyl-1H-benzimidazol-6-yl)-4-{[3-(phenylmethyl)piperidin-1-yl]carbonyl}-2,3,4,5-tetrahydro-1,4-benzoxazepine] | 250 to 700 | 1000 to 3000 |
| Cc1nc2ccc(-c3ccc4c(c3)CN(C(=O)N3CCCCC3c3ccc(C(F)(F)F)cc3)CCO4)cc2[nH]1 (stereo not shown) [Compound 120, 7-(2-methyl-1H-benzimidazol-6-yl)-4-({2-[4-(trifluoromethyl)phenyl]piperidin-1-yl}carbonyl)-2,3,4,5-tetrahydro-1,4-benzoxazepine] | ≤ 50 | 200 to 500 |
| Cc1nc2ccc(-c3ccc4c(c3)CN(C(=O)N3CCN(c5cccc(Cl)c5)CC3)CCO4)cc2[nH]1 [Compound 176, 4-{[4-(3-chlorophenyl)piperazin-1-yl]carbonyl}-7-(2-methyl-1H-benzimidazol-6-yl)-2,3,4,5-tetrahydro-1,4-benzoxazepine] | 50 to 250 | 1000 to 3000 |
| Cc1nc2ccc(-c3ccc4c(c3)CN(C(=O)N3CCCC(C)C3)CCO4)cc2[nH]1 (stereo not shown) [Compound 88, 7-(2-methyl-1H-benzimidazol-6-yl)-4-[(3-methylpiperidin-1-yl)carbonyl]-2,3,4,5-tetrahydro-1,4-benzoxazepine] | 250 to 700 | 200 to 500 |
| Nc1nc2ncc(-c3ccc4c(c3)CN(C(=O)N3CCC(CCF)CC3)CCO4)cc2[nH]1 [Compound 44, 6-(4-{[4-(2-fluoroethyl)piperidin-1-yl]carbonyl}-2,3,4,5-tetrahydro-1,4-benzoxazepin-7-yl)-1H-imidazo[4,5-b]pyridin-2-amine] | ≤ 50 | ≤ 75 |
| Nc1nc2ncc(-c3ccc4c(c3)CN(C(=O)N3[C@@H]5CC[C@H]3C[C@](O)(C(F)(F)F)C5)CCO4)cc2[nH]1 [Compound 49, 8-{[7-(2-amino-1H-imidazo[4,5-b]pyridin-6-yl)-2,3-dihydro-1,4-benzoxazepin-4(5H)-yl]carbonyl}-3-(trifluoromethyl)-8-azabicyclo[3.2.1]octan-3-(endo)-ol] | ≤ 50 | ≤ 75 |
| COC(=O)Nc1nc2ncc(-c3ccc4c(c3)CN(C(=O)N3CCC(CCF)CC3)CCO4)cc2[nH]1 [Compound 35, methyl [6-(4-{[4-(2-fluoroethyl)piperidin-1-yl]carbonyl}-2,3,4,5-tetrahydro-1,4-benzoxazepin-7-yl)-1H-imidazo[4,5-b]pyridin-2-yl]carbamate] | ≤ 50 | ≤ 75 |
| Cc1nc2ccc(-c3ccc4c(c3)CN(C(=O)N3CCC(C)(O)CC3)CCO4)cc2[nH]1 [Compound 79, 4-methyl-1-{[7-(2-methyl-1H-benzimidazol-6-yl)-2,3-dihydro-1,4-benzoxazepin-4(5H)-yl]carbonyl}piperidin-4-ol] | 50 to 250 | 500 to 1000 |
| Cc1nc2ccc(-c3ccc4c(c3)CN(C(=O)N3CCC(c5noc(C6CC6)n5)CC3)CCO4)cc2[nH]1 [Compound 163, 4-{[4-(5-cyclopropyl-1,2,4-oxadiazol-3-yl)piperidin-1-yl]carbonyl}-7-(2-methyl-1H-benzimidazol-6-yl)-2,3,4,5-tetrahydro-1,4-benzoxazepine] | 250 to 700 | 1000 to 3000 |

Reference: patent publication US8637499B2, “Benzoxazepines as inhibitors of PI3K/mTOR and methods of their use and manufacture” (Exelixis, Inc., priority 2009, dated 2014)
